Tested on: yeast genes (expressed mRNA)
Test: DNA chip measurement of expressed mRNA of yeast genes after culture with a toxic chemical substance
Type: cell-based, Saccharomyces cerevisiae S288C
Conditions: for level of expressed mRNA in the presence of chemical substance / level in the absence of chemical substance: cultured two hours with the chemical substance; for The level of expressed mRNA in the presence of chemical substance/The level of expressed mRNA in the absence of chemical substance: cultured two hours with substance
Procedure: Yeast (Saccharomyces cerevisiae S288C (a SUC2mal mel gap2 CUP1)) were cultured at 25° C. on YPD medium (yeast extract 1%, polypeptone 2%, glucose 2%). One of toxic chemical substances was added to the cell at logarithmic growth phase, and the cell was further cultured for two hours. Cell was cultured without any chemical substance in the same condition, and was used as a control. Concentrations of the chemical substances were defined to inhibit the growth of the yeast but not lead to death.
After the completion of cultivation, the culture was centrifuged to collect the cells. To the cells, sodium acetate buffer (50 mM sodium acetate, 10 mM EDTA, 1% SDS) was added, and the mixture was shaken at 65° C. for five minutes, followed by returning to room temperature, and obtaining the supernatant, which procedure was repeated two times. To the supernatant, ½ amount of a solution of phenol/chloroform (1:1) was added, and the mixture was centrifuged to give a supernatant, an equal amount of chloroform was added, and the mixture was centrifuged to give a supernatant. To the supernatant, an equal amount of isopropanol containing 0.3 M sodium acetate was added, and the mixture was allowed to stand at room temperature for 30 minutes, after which the mixture was centrifuged to give sediment of the whole RNAs. Seventy % ethanol was added to the sediment, and the mixture was again centrifuged to give sediment, which was then dried and dissolved in water. mRNA was isolated from the whole RNAs as followings. In view of the fact that a poly A chain is attached to the 3′ terminus of mRNA, a polynucleotide having a poly T structure which was immobilized on the surface of latex beads was used to trap the mRNA, and then the mRNA was washed and eluted with spine column (Oligotex-dT30<Super>mRNA Purification Kit, Takara). Reverse transcription of the mRNA was conducted with a reverse transcriptase (Super Script II Reverse Transcriptase; catalogue No. 18064-014, GibcoBRL) using fluorescence-labeled nucleotides to give cDNAs that were introduced with Cy3-dUTP or Cy5-dUTP during the reverse transcription.
The labeled cDNAs were dissolved in TE buffer (10 mM Tris-HCl/1 mM EDTA, pH 8.0), and the solution was dropped on the DNA chip containing the whole genes of yeast (DNA Chip Research Inc. Japan) so that the cDNAs were hybridized on the DNA chip at 65° C. for over 12 hours. The fluoresces intensity of the DNA chip was read with a scanner, and the ratio relative to the fluorescence intensity resulting from the absence of chemical substance was estimated as the following, which is shown in Tables 1 to 9.
In the Tables, “Intensity” indicated in the rightmost column is a value of the level of expressed mRNA of each gene in control cells as divided by the average level of the expressions of the whole genes. A gene of which mRNA level is lower in control, and is higher in cases of addition of chemical substance, is especially useful in the detection of toxic substances.
Here, when a ratio of an amount of mRNA expressed in the presence of the chemical substance to an amount of mRNA expressed in the absence of the chemical substance is two or more, then it is considered significant.

Structure (SMILES): CCCCCCCCCCCCc1ccc(S(=O)(=O)[O-])cc1.[Na+] [(17), Sodium dodecylbenzosulfonate]
- The level of expressed mRNA in the presence of chemical substance/The level of expressed mRNA in the absence of chemical substance, yeast gene YBR036C (gene YBR036C, Metabolism protein genes, DNA chip fluorescence ratio): 2.1
- The level of expressed mRNA in the presence of chemical substance/The level of expressed mRNA in the absence of chemical substance, yeast gene YBR298C (gene YBR298C, Metabolism protein genes, DNA chip fluorescence ratio): 0.9
- The level of expressed mRNA in the presence of chemical substance/The level of expressed mRNA in the absence of chemical substance, yeast gene YDL067C (gene YDL067C (mitochondria-located protein gene), yeast cultured two hours with chemical substance, DNA chip fluorescence ratio to control): 1.2
- The level of expressed mRNA in the presence of chemical substance/The level of expressed mRNA in the absence of chemical substance, yeast gene YDL078C (gene YDL078C, Metabolism protein genes, DNA chip fluorescence ratio): 1.1
- The level of expressed mRNA in the presence of chemical substance/The level of expressed mRNA in the absence of chemical substance, yeast gene YDL215C (gene YDL215C, Metabolism protein genes, DNA chip fluorescence ratio): 1.1
- The level of expressed mRNA in the presence of chemical substance/The level of expressed mRNA in the absence of chemical substance, yeast gene YDR079W (gene YDR079W (mitochondria-located protein gene), yeast cultured two hours with chemical substance, DNA chip fluorescence ratio to control): 1.1
- The level of expressed mRNA in the presence of chemical substance/The level of expressed mRNA in the absence of chemical substance, yeast gene YDR297W (gene YDR297W, Metabolism protein genes, DNA chip fluorescence ratio): 1.9
- The level of expressed mRNA in the presence of chemical substance/The level of expressed mRNA in the absence of chemical substance, yeast gene YDR387C (gene YDR387C, Metabolism protein genes, DNA chip fluorescence ratio): 1.2
- The level of expressed mRNA in the presence of chemical substance/The level of expressed mRNA in the absence of chemical substance, yeast gene YGL035C (gene YGL035C, Metabolism protein genes, DNA chip fluorescence ratio): 0.9
- The level of expressed mRNA in the presence of chemical substance/The level of expressed mRNA in the absence of chemical substance, yeast gene YGR062C (gene YGR062C (mitochondria-located protein gene), yeast cultured two hours with chemical substance, DNA chip fluorescence ratio to control): 0.9
- The level of expressed mRNA in the presence of chemical substance/The level of expressed mRNA in the absence of chemical substance, yeast gene YGR287C (gene YGR287C, Metabolism protein genes, DNA chip fluorescence ratio): 1.0
- The level of expressed mRNA in the presence of chemical substance/The level of expressed mRNA in the absence of chemical substance, yeast gene YJL070C (gene YJL070C, Metabolism protein genes, DNA chip fluorescence ratio): 1.1
- The level of expressed mRNA in the presence of chemical substance/The level of expressed mRNA in the absence of chemical substance, yeast gene YJL096W (gene YJL096W (mitochondria-located protein gene), yeast cultured two hours with chemical substance, DNA chip fluorescence ratio to control): 1.1
- The level of expressed mRNA in the presence of chemical substance/The level of expressed mRNA in the absence of chemical substance, yeast gene YJL180C (gene YJL180C (mitochondria-located protein gene), yeast cultured two hours with chemical substance, DNA chip fluorescence ratio to control): 0.9
- The level of expressed mRNA in the presence of chemical substance/The level of expressed mRNA in the absence of chemical substance, yeast gene YKR009C (gene YKR009C, Metabolism protein genes, DNA chip fluorescence ratio): 1.9
- The level of expressed mRNA in the presence of chemical substance/The level of expressed mRNA in the absence of chemical substance, yeast gene YLR295C (gene YLR295C (mitochondria-located protein gene), yeast cultured two hours with chemical substance, DNA chip fluorescence ratio to control): 0.9
- The level of expressed mRNA in the presence of chemical substance/The level of expressed mRNA in the absence of chemical substance, yeast gene YLR351C (gene YLR351C, Metabolism protein genes, DNA chip fluorescence ratio): 1.3
- The level of expressed mRNA in the presence of chemical substance/The level of expressed mRNA in the absence of chemical substance, yeast gene YLR375W (gene YLR375W, Metabolism protein genes, DNA chip fluorescence ratio): 1.0
- The level of expressed mRNA in the presence of chemical substance/The level of expressed mRNA in the absence of chemical substance, yeast gene YMR023C (gene YMR023C (mitochondria-located protein gene), yeast cultured two hours with chemical substance, DNA chip fluorescence ratio to control): 1.1
- The level of expressed mRNA in the presence of chemical substance/The level of expressed mRNA in the absence of chemical substance, yeast gene YMR267W (gene YMR267W (mitochondria-located protein gene), yeast cultured two hours with chemical substance, DNA chip fluorescence ratio to control): 0.9
- The level of expressed mRNA in the presence of chemical substance/The level of expressed mRNA in the absence of chemical substance, yeast gene YMR267W (gene YMR267W, Metabolism protein genes, DNA chip fluorescence ratio): 0.9
- The level of expressed mRNA in the presence of chemical substance/The level of expressed mRNA in the absence of chemical substance, yeast gene YMR278W (gene YMR278W, Metabolism protein genes, DNA chip fluorescence ratio): 1.0
- The level of expressed mRNA in the presence of chemical substance/The level of expressed mRNA in the absence of chemical substance, yeast gene YMR293C (gene YMR293C, Metabolism protein genes, DNA chip fluorescence ratio): 0.8
- The level of expressed mRNA in the presence of chemical substance/The level of expressed mRNA in the absence of chemical substance, yeast gene YNL073W (gene YNL073W (mitochondria-located protein gene), yeast cultured two hours with chemical substance, DNA chip fluorescence ratio to control): 0.8
- The level of expressed mRNA in the presence of chemical substance/The level of expressed mRNA in the absence of chemical substance, yeast gene YNR072W (gene YNR072W, Metabolism protein genes, DNA chip fluorescence ratio): 1.3
- The level of expressed mRNA in the presence of chemical substance/The level of expressed mRNA in the absence of chemical substance, yeast gene YOL096C (gene YOL096C, Metabolism protein genes, DNA chip fluorescence ratio): 1.2
- The level of expressed mRNA in the presence of chemical substance/The level of expressed mRNA in the absence of chemical substance, yeast gene YOR180C (gene YOR180C, Metabolism protein genes, DNA chip fluorescence ratio): 0.9
- The level of expressed mRNA in the presence of chemical substance/The level of expressed mRNA in the absence of chemical substance, yeast gene YOR316C (gene YOR316C (mitochondria-located protein gene), yeast cultured two hours with chemical substance, DNA chip fluorescence ratio to control): 0.8
- The level of expressed mRNA in the presence of chemical substance/The level of expressed mRNA in the absence of chemical substance, yeast gene YOR363C (gene YOR363C, Metabolism protein genes, DNA chip fluorescence ratio): 1.3
- The level of expressed mRNA in the presence of chemical substance/The level of expressed mRNA in the absence of chemical substance, yeast gene YPL040C (gene YPL040C (mitochondria-located protein gene), yeast cultured two hours with chemical substance, DNA chip fluorescence ratio to control): 0.8
- The level of expressed mRNA in the presence of chemical substance/The level of expressed mRNA in the absence of chemical substance, yeast gene YPL134C (gene YPL134C (mitochondria-located protein gene), yeast cultured two hours with chemical substance, DNA chip fluorescence ratio to control): 1.3
- The level of expressed mRNA in the presence of chemical substance/The level of expressed mRNA in the absence of chemical substance, yeast gene YPR184W (gene YPR184W, Metabolism protein genes, DNA chip fluorescence ratio): 1.0
- level of expressed mRNA in the presence of chemical substance / level in the absence of chemical substance (yeast gene YAL018C): 0.9
- The level of expressed mRNA in the presence of chemical substance/The level of expressed mRNA in the absence of chemical substance (yeast gene YAL053W): 1.2
- level of expressed mRNA in the presence of chemical substance / level in the absence of chemical substance (yeast gene YAR047C): 1.7
- level of expressed mRNA in the presence of chemical substance / level in the absence of chemical substance (yeast gene YAR064W): 0.9
- level of expressed mRNA in the presence of chemical substance / level in the absence of chemical substance (yeast gene YBL044W): 0.8
- The level of expressed mRNA in the presence of chemical substance/The level of expressed mRNA in the absence of chemical substance (yeast gene YBL048W): 1.3
- The level of expressed mRNA in the presence of chemical substance/The level of expressed mRNA in the absence of chemical substance (yeast gene YBL107C): 0.9
- level of expressed mRNA in the presence of chemical substance / level in the absence of chemical substance (yeast gene YBR012C): 1.4
- level of expressed mRNA in the presence of chemical substance / level in the absence of chemical substance (yeast gene YBR066C): 1.2
- level of expressed mRNA in the presence of chemical substance / level in the absence of chemical substance (yeast gene YBR124W): 0.9
- level of expressed mRNA in the presence of chemical substance / level in the absence of chemical substance (yeast gene YBR162C): 1.2
- level of expressed mRNA in the presence of chemical substance / level in the absence of chemical substance (yeast gene YBR287W): 3.2
- level of expressed mRNA in the presence of chemical substance / level in the absence of chemical substance (yeast gene YCL042W): 0.8
- level of expressed mRNA in the presence of chemical substance / level in the absence of chemical substance (yeast gene YCL056C): 1.2
- level of expressed mRNA in the presence of chemical substance / level in the absence of chemical substance (yeast gene YCR007C): 2.6
- level of expressed mRNA in the presence of chemical substance / level in the absence of chemical substance (yeast gene YDL046W): 1.2
- The level of expressed mRNA in the presence of chemical substance/The level of expressed mRNA in the absence of chemical substance (yeast gene YDL072C): 1.6
- The level of expressed mRNA in the presence of chemical substance/The level of expressed mRNA in the absence of chemical substance (yeast gene YDL204W): 1.8
- The level of expressed mRNA in the presence of chemical substance/The level of expressed mRNA in the absence of chemical substance (yeast gene YDL222C): 0.9
- level of expressed mRNA in the presence of chemical substance / level in the absence of chemical substance (yeast gene YDR090C): 1.1
